Reference: paper PMC5587747, “A natural chalcone induces apoptosis in lung cancer cells: 3D-QSAR, docking and an in vivo/vitro assay” (Scientific Reports, 2017)
Converted amounts (≈) assume the structure as drawn. Like-named read-outs stand apart in the source and are kept apart here.

Columns and labels:
[1] = tested on: CEM leukaemic cell line; design: method as in PMID 12601679; settings: cited from earlier work
[2] = tested on: H522; assay: MTT cytotoxicity assay, H522 cells; format: cell-based, human; settings: Homo sapiens, NCI-H522, lonchocarpin 100 μM, read-out: inhibition rate (IR %)
Description: (§1) The cytotoxicities of the tested flavonoids were assayed in ten human lung cancer cell lines (A549, H226, H358, H522, H292, H1944, H460, H1792, SW1573, and Calu-1) using MTT reduction assay. Cisplatin (DDP) was selected as a positive control. Compounds 1–37 were dissolved in DMSO to obtain a clear solution of 1 M, which was diluted to 400 mM, 200 mM, 100 mM, 75 mM, 50 mM, 37.5 mM, 25 mM, 10 mM and 1 mM respectively as stock solutions. The DMSO concentration in the medium was kept below 0.10%. Moreover, the stability of tested compounds in experimental buffer was confirmed at 24 h and 48 h respectively by means of HPLC analysis. Then the human lung cancer cells were placed in 96-well culture plates (5 × 10^4 cells/well) and incubated for 24 h. Then, the cells were pretreated with different concentrations of test samples (gradient concentrations 1.0, 10.0, 25.0, 37.5, 50, 75, 100, 200, 400, 1000 μM for compounds 1–37 and DDP) for 48 h. And cell growth was measured by MTT assays. The cytotoxicities against the lung cancer cells were determined systematically and expressed as IC50 value.

[3] = tested on: Bcl-2, Bax, procaspase-3, cleaved caspase-3, cytochrome c, caspase-9 in H292 cells; assay: Western blotting of apoptosis-related proteins; format: cell-based, human; settings: H292, 20 μM
Description: Western blotting was performed according to the method described in previous research. […] Then, the cells were harvested and then washed with PBS and lysed in a radio immune-precipitation assay buffer for 30 min. BCA protein assay kit (Byontime, Beijing, China) was used for determination of the total protein contents. And the protein samples were dissolved and seperated on 10% SDS-PAGE gels. After that the proteins were transferred to PVDF (polyvinylidene fluoride) (Bio-Rad, Hercules, CA) membranes and incubated sequentially with blocking buffer, primary antibodies, and horseradish peroxidase-conjugated secondary antibodies.

[4] = tested on: H292 cells; assay: MTT cytotoxicity assay, H292 cells; format: cell-based, human; settings: Homo sapiens, NCI-H292; for IC50: H292 cells
Description: as §1

[5] = tested on: H358; assay: MTT cytotoxicity assay, H358 cells; format: cell-based, human; settings: Homo sapiens, NCI-H358, lonchocarpin 100 μM, read-out: inhibition rate (IR %)
Description: as §1

[6] = tested on: Vero cells; assay: Cytotoxicity in Vero cells; format: cell-based; settings: at 1000 μM
[7] = tested on: Calu-1; assay: MTT cytotoxicity assay, Calu-1 cells; format: cell-based, human; settings: Homo sapiens, lonchocarpin 100 μM, read-out: inhibition rate (IR %)
Description: as §1

[8] = tested on: A549; assay: MTT cytotoxicity assay, A549 cells; format: cell-based, human; settings: Homo sapiens, lonchocarpin 100 μM, read-out: inhibition rate (IR %)
Description: as §1

[9] = tested on: H1792; assay: MTT cytotoxicity assay, H1792 cells; format: cell-based, human; settings: Homo sapiens, NCI-H1792, lonchocarpin 100 μM, read-out: inhibition rate (IR %)
Description: as §1

[10] = tested on: S180-bearing mice; assay: In vivo antitumor activity in S180 implanted mice; settings: 12 days; for Tumor weight/g: mean ± SE
Description: The animal experiments were carried out according to the National Institute of Health Guide for the Care and Use of Laboratory Animals. And the use of experimental animals was approved by the Animal Ethics Committee of Shenyang Pharmaceutical University. Male Kunming mice, were housed in separate cages under standard conditions (20–24 °C), relative humidity (55% ± 5%) and a 12 h light/12 h dark cycle, and allowed to acclimatize for 3 days prior to the start of experiment. Cultured S180 cells were harvested and washed with sterilized PBS (pH 7.2) three times and resuspended at a density of 6 × 10^6 cells/ml. Mice received subcutaneous implants of 0.2 mL/mouse on the right flank by means of hypodermic injection. Then the mice were divided randomly into 5 groups, including model, positive control and treatment groups with 10 mice in each group after inoculation for 24 h. […] Both groups received oral administrations via an intubation needle every day. […] The weight of the mice was recorded every day throughout the experiment. Finally, the mice were sacrificed by cervical dislocation just 2 h after the last administration. Then the tumor and spleen tissues were harvested and weighed immediately. After that the in vivo tumor inhibition ratio was calculated as: Inhibition ratio (%) = 100((A−B)/A), in which A represents the average tumor weight of the control group and B is recorded as the tumor weight of the administration group. Then, the spleen index was recorded using the following formula:
Spleen index = the final weight of spleen (mg)/the final average body weight (g) without tumor.

[11] = tested on: H460; assay: MTT cytotoxicity assay, H460 cells; format: cell-based, human; settings: Homo sapiens, NCI-H460, lonchocarpin 100 μM, read-out: inhibition rate (IR %)
Description: as §1

[12] = tested on: H1944; assay: MTT cytotoxicity assay, H1944 cells; format: cell-based, human; settings: Homo sapiens, NCI-H1944, lonchocarpin 100 μM, read-out: inhibition rate (IR %)
Description: as §1

[13] = tested on: SW1573; assay: MTT cytotoxicity assay, SW1573 cells; format: cell-based, human; settings: Homo sapiens, lonchocarpin 100 μM, read-out: inhibition rate (IR %)
Description: as §1

[14] = tested on: H292 cells; assay: Annexin V/PI apoptosis assay by flow cytometry; format: cell-based, human; settings: H292, 20 μM
Description: Cell apoptosis was evaluated by Annexin V/PI staining assay and analyzed using an apoptosis detection kit (Keygen, Nanjing, China)[37]. Briefly, H292 cells were cultured at the density of 1 × 10^6 cells/well. […] Both attached and floating cells were harvested at the arranged time point, and washed twice with ice-cold PBS, then resuspended in 100 μL binding buffer with Annexin V and PI for 15 min at 37 °C in darkness. Finally, the treated cells were analyzed by flow cytometry (Becton Dickinson, Franklin Lakes, NJ, USA) and Cell Quest software. The apoptosis rate was given by the following formula:
Apoptosis rate % = (number of apoptotic cells)/(number of total cells observed) × 100%.

[15] = tested on: H226; assay: MTT cytotoxicity assay, H226 cells; format: cell-based, human; settings: Homo sapiens, NCI-H226, lonchocarpin 100 μM, read-out: inhibition rate (IR %)
Description: as §1

CC1(C)C=Cc2c(ccc(C(=O)/C=C/c3ccccc3)c2O)O1 [Compound 34, lonchocarpin]
IC50 [1]: 10.4 µg/mL (≈ 33.9 µM) | inhibition at 100 µM [2]: 63% | Bax protein expression [3]: up-regulation | caspase-9 [3]: activation | cytochrome c protein expression [3]: up-regulation | procaspase-3 protein expression [3]: reduction | Bcl-2 protein expression ([3]; 24 h and 48 h): obviously down-regulated | cleaved caspase-3 protein expression ([3]; 48 h): significantly increased | inhibition at 100 µM ([4]; H292, lonchocarpin 100 μM, read-out: inhibition rate (IR %)): 97.5% | IC50 ([4]; MTT, 48 h, read-out: IC50): 10 µM | IC50 ([4]; Table S2, read-out: pIC50 (converted)): 10 µM | inhibition at 100 µM [5]: 51.3% | cytotoxicity in Vero cells ([6]; listed as Lonchocarpin): no cytotoxicity | cytotoxicity in Vero cells ([6]; listed as lonchocarpin): no toxicity | inhibition at 100 µM [7]: 23.8% | inhibition at 100 µM [8]: 42.3% | inhibition at 100 µM [9]: 46.7% | Body weight/g After experiment ([10]; 25 mg/kg oral daily): 26.45 ± 0.68 g | Body weight/g Before experiment ([10]; 25 mg/kg oral daily): 39.19 ± 2.15 g | Inhibitory rate (%) ([10]; 25 mg/kg oral daily): 57.94% | Spleen index ([10]; 25 mg/kg oral daily): 3.08 mg/g | Tumor weight/g ([10]; 25 mg/kg oral daily): 3.39 ± 0.69 g | Body weight/g After experiment ([10]; 50 mg/kg oral daily): 28.99 ± 0.47 g | Body weight/g Before experiment ([10]; 50 mg/kg oral daily): 36.48 ± 1.38 g | Inhibitory rate (%) ([10]; 50 mg/kg oral daily): 63.40% | Spleen index ([10]; 50 mg/kg oral daily): 3.17 mg/g | Tumor weight/g ([10]; 50 mg/kg oral daily): 2.95 ± 0.66 g | Body weight/g After experiment ([10]; 100 mg/kg oral daily): 28.21 ± 1.98 g | Body weight/g Before experiment ([10]; 100 mg/kg oral daily): 38.71 ± 2.20 g | Inhibitory rate (%) ([10]; 100 mg/kg oral daily): 72.51% | Spleen index ([10]; 100 mg/kg oral daily): 3.30 mg/g | Tumor weight/g ([10]; 100 mg/kg oral daily): 2.21 ± 0.72 g | inhibition at 100 µM [11]: 76.3% | inhibition at 100 µM [12]: 69.2% | inhibition at 100 µM [13]: 92.3% | early apoptosis (lower right quadrant) ([14]; 12 h): 7.2% | late apoptosis (upper right quadrant) ([14]; 12 h): 3.9% | apoptosis ([14]; 24 h): about 41.1% | apoptosis ([14]; 48 h): ~47.9% | inhibition at 100 µM [15]: 62%
